A short description of data set [1]: Release of other therapeutic agents from blended PVA cast films or electrospun membranes. Format: physicochemical. The conditions noted are these: for drug release: 1% gentamicin. The method, then:
Films or electrospun membrane were manufactured as described above containing either docetaxel, doxycycline, gentamicin or bovine serum albumin (BSA; as a protein model for any “biological” based drug such as an antibody). […] Gentamicin was analyzed using a fluorescence tag assay using Fluoraldehyde™ (Thermo Fisher) and BSA protein release was assayed using a BCA protein analysis kit.

The conditions of data set [2]: cited from earlier work.
The next data set concerns MRSA strain USA300. Briefly: Antimicrobial efficacy of silver-loaded PVA films and membranes. Format: cell-based, S. aureus. As to conditions: for bacterial death: 1% w/w silver, 20 mg in 10 mL, up to 48 hours; for Anti-bacterial (MRSA) activity: 1% w/w silver salt (FIG. 11).
Data set [3] can be described thus: Film swelling and degradation studies in deionized water (cast films and electrospun membranes). In kind it is physicochemical. As to conditions: cast films with 48% and 46% PVA 99% content (rest PVA 88%).
Description: PVA films or electrospun membranes were prepared as described above. These films were then stored for one week in the dark before use. Small sections of films (approximate diameters of 2 cm) were then placed on moist 0.2 µm filter discs (Millipore, Billerica, MA, USA) and weighed. The films and filters were covered with a thin layer of deionized water and left for appropriate times. After set time points the filter discs and adherent PVA-silver gel were moved to a Millipore vacuum apparatus and all excess water was removed from the filter over approximately 15 seconds. The combined PVA gel and filter were reweighed and recovered with a fresh layer of excess water. The weight gain (swelling) and weight loss (dissolution) were then calculated as a percentage of the original dry film weight.
Data set [4] in a line: Silver release studies (inductively coupled plasma analysis of release media). In kind it is physicochemical. As to conditions: electrospun membranes 10:90 PVA99%:PVA88%, 1% w/w silver salt.
Description: Films or electrospun membranes containing silver were placed in deionized water and the media sampled at regular intervals for silver analysis by Inductively coupled plasma analysis. Silver calibration standards were run every 10 samples. The instrument held reproducible standard curves over 100 sequential silver analysis with detection limits approximating 10 ng/ml. Each release study was run in triplicate for at least two weeks and the results plotted as the calculated percent silver released as a function of time.
The mark [5] stands for this setting: electrospun membranes 10:90 PVA99%:PVA88%.

Converted amounts (≈) assume the structure as drawn.

Description for MRSA strain USA300: In order to illustrate the antimicrobial activity of PVA-silver formulations, all cast films and electrospun membranes were weighed at 20 mg +/- 0.5 mg. The methicillin resistant strain of S. aureus (MRSA strain USA300) was cultured overnight from freezer stocks (20 µL bacterial sample into 20 mL Luria Bertani (LB) broth), followed by a second sub-culture (200 µL in 20 mL LB broth) until an optical density of -0.3-0.5 at λ=600 nm was reached (measured using an Eppendorf BioPhotometer (Eppendorf, Mississauga, ON, Canada), at which point bacteria were used as outlined below.

For the molecule `CC(=O)O[C@@]12CO[C@@H]1C[C@H](O)[C@@]1(C)C(=O)[C@H](O)C3=C(C)[C@@H](OC(=O)[C@H](O)[C@@H](NC(=O)OC(C)(C)C)c4ccccc4)C[C@@](O)([C@@H](OC(=O)c4ccccc4)[C@H]21)C3(C)C` [docetaxel], in data set [1] (electrospun membranes 35:65, 45:55 or 55:45 PVA 99%:88%, 1% docetaxel, over 7 days), the “drug release, % of total drug” value is recorded as 5-8%.
As to `C[C@H]1c2cccc(O)c2C(=O)C2=C(O)[C@]3(O)C(=O)C(C(N)=O)=C(O)[C@@H](N(C)C)[C@@H]3[C@@H](O)[C@@H]21` [doxycycline], the water solubility in data set [2] was 500 µg/mL (≈ 1130 µM).
`O=S(=O)([O-])[O-].[Ag+].[Ag+]` [silver sulphate]: the bacterial death in the data set with MRSA strain USA300 (cast films 40:60 PVA99%:PVA88%) and with MRSA strain USA300 (setting [5]) was 100% in each case. The “Anti-bacterial (MRSA) activity” value in the data set on MRSA strain USA300 (setting [5]) and in the data set with MRSA strain USA300 (films 40:60 PVA99%:PVA88%) was “killed all MRSA bacteria” in each case. Further, the “swelling at 6 hours” value in data set [3] is reported as > 0%. Besides, in data set [4], the “silver release by day 11” value is 75%.
Consider gentamicin, for which the drug release in data set [1] (cast films 35:65, 45:55 or 55:45 PVA 99%:88%, over 7 days) is recorded as 50-70%; in data set [1] (electrospun membranes 35:65, 45:55 or 55:45 PVA 99%:88%, over 6 days), 40%.
